Assays:
Assay type in all cases: biochemical
JAK1 = biological target: T1, JAK1 (Homo sapiens, UniProt P23458); assay: Z'-LYTE kinase assay JAK1
T1 construct: 5 μl of catalytic domain recombinant Kinase enzyme+Tyr peptide substrate (Invitrogen, CA); purchased Invitrogen
In short: (§1)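 Z′-LYTE FRET, Tyr6 peptide, recombinant catalytic domain + ATP, 1 h RT, 1% DMSO final, duplicates; protease development 1 h RT; fluorescence read.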

JAK2 = biological target: T2, JAK2 (Homo sapiens, UniProt O60674); assay: Z'-LYTE kinase assay JAK2
T2 construct: 5 μl of catalytic domain recombinant Kinase enzyme+Tyr peptide substrate (Invitrogen, CA); purchased Invitrogen
T2 sequence (O60674 849-1124 limits assumed): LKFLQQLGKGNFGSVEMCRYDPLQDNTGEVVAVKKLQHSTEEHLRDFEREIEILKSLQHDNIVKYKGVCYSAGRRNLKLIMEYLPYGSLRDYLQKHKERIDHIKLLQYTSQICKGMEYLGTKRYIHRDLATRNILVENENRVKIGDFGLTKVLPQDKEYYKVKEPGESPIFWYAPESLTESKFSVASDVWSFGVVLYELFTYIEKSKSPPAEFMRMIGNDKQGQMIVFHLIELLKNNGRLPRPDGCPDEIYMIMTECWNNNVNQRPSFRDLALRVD
In short: as §1

JAK3 = biological target: T3, JAK3 (Homo sapiens, UniProt P52333); assay: Z'-LYTE kinase assay JAK3
T3 construct: 5 μl of catalytic domain recombinant Kinase enzyme+Tyr peptide substrate (Invitrogen, CA); purchased Invitrogen
T3 sequence (P52333 822-1111 limits assumed): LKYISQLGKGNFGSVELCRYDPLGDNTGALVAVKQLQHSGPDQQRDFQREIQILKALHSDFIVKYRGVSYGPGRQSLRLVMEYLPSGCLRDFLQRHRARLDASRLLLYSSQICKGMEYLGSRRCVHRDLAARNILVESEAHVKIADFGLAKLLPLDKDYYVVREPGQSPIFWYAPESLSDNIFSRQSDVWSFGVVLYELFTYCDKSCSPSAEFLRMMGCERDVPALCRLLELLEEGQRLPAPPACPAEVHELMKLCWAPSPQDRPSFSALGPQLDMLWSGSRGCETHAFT
In short: as §1

T1 sequence (P23458 875-1153 limits assumed): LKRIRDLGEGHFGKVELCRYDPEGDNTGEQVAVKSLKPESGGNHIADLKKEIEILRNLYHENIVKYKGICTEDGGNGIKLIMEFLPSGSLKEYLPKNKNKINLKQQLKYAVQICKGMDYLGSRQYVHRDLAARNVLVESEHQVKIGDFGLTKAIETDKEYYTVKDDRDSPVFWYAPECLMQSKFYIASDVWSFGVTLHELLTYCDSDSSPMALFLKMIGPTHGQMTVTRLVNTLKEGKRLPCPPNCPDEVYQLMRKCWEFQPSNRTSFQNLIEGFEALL

Structure (SMILES) | IC50 (JAK1) | IC50 (JAK2) | IC50 (JAK3)
COC[C@@H](Nc1cc(Nc2cccc(N3CCOCC3)c2)ncc1C(N)=O)c1ccccc1 [Example 261, (S)-4-(2-methoxy-1-phenylethylamino)-6-(3-morpholinophenylamino)nicotinamide] | > 1 µM | 0.1 to 1 µM | 0.01 to 0.1 µM
COC[C@@H](Nc1cc(Nc2ccc(N3CCOCC3)cc2)ncc1C(N)=O)c1ccccc1 [Example 262, (S)-4-(2-methoxy-1-phenylethylamino)-6-(4-morpholinophenylamino)nicotinamide] | > 1 µM | 0.1 to 1 µM | 0.01 to 0.1 µM
COC[C@@H](Nc1cc(Nc2ccc(C(=O)N(C)C)cc2)ncc1C(N)=O)c1ccccc1 [Example 263, (S)-6-(4-(dimethylcarbamoyl)phenylamino)-4-(2-methoxy-1-phenylethylamino)nicotinamide] | > 1 µM | 0.1 to 1 µM | 0.01 to 0.1 µM
COC[C@@H](Nc1cc(Nc2ccc(C(=O)N3CCC3)cc2)ncc1C(N)=O)c1ccccc1 [Example 264, (S)-6-(4-(azetidine-1-carbonyl)phenylamino)-4-(2-methoxy-1-phenylethylamino)nicotinamide] | 0.1 to 1 µM | 0.1 to 1 µM | 0.01 to 0.1 µM
COCC(=O)N1CCC[C@H](CNc2cc(Nc3ccc(C(=O)N(C)C)cc3)ncc2C(N)=O)C1 [Example 266, (R)-6-(4-(dimethylcarbamoyl)phenylamino)-4-((1-(2-methoxyacetyl)piperidin-3-yl)methylamino)nicotinamide] | > 1 µM | > 1 µM | 0.01 to 0.1 µM
COCC(=O)N1CCC[C@H](CNc2cc(Nc3ccc(C(=O)N4CCCC4)cc3)ncc2C(N)=O)C1 [Example 267, (R)-4-((1-(2-methoxyacetyl)piperidin-3-yl)methylamino)-6-(4-(pyrrolidine-1-carbonyl)phenylamino)nicotinamide] | > 1 µM | 0.1 to 1 µM | 0.01 to 0.1 µM
CC(=O)N1CCC[C@H](CNc2cc(Nc3ccc(NS(=O)(=O)N(C)C)cc3)ncc2C(N)=O)C1 [Example 269, (R)-4-((1-acetylpiperidin-3-yl)methylamino)-6-(4-(N,N-dimethylsulfamoylamino)phenylamino)nicotinamide] | 0.1 to 1 µM | 0.1 to 1 µM | 0.01 to 0.1 µM
COc1ccc(Nc2cc(NC[C@H]3CCCNC3)c(C(N)=O)cn2)cc1 [Example 270, (S)-6-(4-methoxyphenylamino)-4-(piperidin-3-ylmethylamino)nicotinamide] | 0.1 to 1 µM | > 1 µM | 0.1 to 1 µM
CCC(=O)N1CCC[C@H](CNc2cc(Nc3ccc(OC)cc3)ncc2C(N)=O)C1 [Example 271, (R)-6-(4-methoxyphenylamino)-4-((1-propionylpiperidin-3-yl)methylamino)nicotinamide] | > 1 µM | > 1 µM | 0.01 to 0.1 µM
CC(=O)N1CCC[C@H](CNc2cc(Nc3ccc(C(=O)N(C)C)c(C(F)(F)F)c3)ncc2C(N)=O)C1 [Example 274, (R)-4-((1-acetylpiperidin-3-yl)methylamino)-6-(4-(dimethylcarbamoyl)-3-(trifluoromethyl)phenylamino)nicotinamide] | > 1 µM | > 1 µM | 0.1 to 1 µM
CC(=O)N1CCC[C@H](CNc2cc(Nc3ccc(C(=O)N(C)C)c(F)c3)ncc2C(N)=O)C1 [Example 275, (R)-4-((1-acetylpiperidin-3-yl)methylamino)-6-(4-(dimethylcarbamoyl)-3-fluorophenylamino)nicotinamide] | > 1 µM | > 1 µM | 0.1 to 1 µM
Cc1cc(Nc2cc(NCc3cncnc3)c(C(N)=O)cn2)ccc1C(=O)N(C)C [Example 287, 6-(4-(dimethylcarbamoyl)-3-methylphenylamino)-4-(pyrimidin-5-ylmethylamino)nicotinamide] | > 1 µM | > 1 µM | 0.1 to 1 µM
CN(C)C(=O)c1ccc(Nc2cc(NCc3cccc4cc[nH]c34)c(C(N)=O)cn2)cc1 [Example 288, 4-((1H-indol-7-yl)methylamino)-6-(4-(dimethylcarbamoyl)phenylamino)nicotinamide] | > 1 µM | 0.01 to 0.1 µM | 0.001 to 0.01 µM
CCS(=O)(=O)N1CCC[C@H](CNc2cc(Nc3ccc(OC)cc3)ncc2C(N)=O)C1 [Example 289, (R)-4-((1-(ethylsulfonyl)piperidin-3-yl)methylamino)-6-(4-methoxyphenylamino)nicotinamide] | > 1 µM | 0.1 to 1 µM | 0.01 to 0.1 µM
COc1ccc(Nc2cc(NC[C@H]3CCCN(C(=O)N4CCCC4)C3)c(C(N)=O)cn2)cc1 [Example 290, (R)-6-(4-methoxyphenylamino)-4-((1-(pyrrolidine-1-carbonyl)piperidin-3-yl)methylamino)nicotinamide] | > 1 µM | > 1 µM | 0.1 to 1 µM
COc1ccc(Nc2cc(NC[C@H]3CCCN(C(=O)N(C)C)C3)c(C(N)=O)cn2)cc1 [Example 291, (R)-4-((1-(dimethylcarbamoyl)piperidin-3-yl)methylamino)-6-(4-methoxyphenylamino)nicotinamide] | > 1 µM | > 1 µM | 0.1 to 1 µM
COc1ccc(Nc2cc(NC[C@H]3CCCN(S(=O)(=O)C4CC4)C3)c(C(N)=O)cn2)cc1 [Example 292, (R)-4-((1-(cyclopropylsulfonyl)piperidin-3-yl)methylamino)-6-(4-methoxyphenylamino)nicotinamide] | > 1 µM | > 1 µM | 0.1 to 1 µM
Cc1cc(Nc2cc(NCc3cccc4[nH]ccc34)c(C(N)=O)cn2)ccc1C(=O)N(C)C [Example 295, 4-((1H-indol-4-yl)methylamino)-6-(4-(dimethylcarbamoyl)-3-methylphenylamino)nicotinamide] | 0.001 to 0.01 µM | 0.001 to 0.01 µM | < 0.001 µM
COc1ccc(Nc2cc(NCc3ccncn3)c(C(N)=O)cn2)cc1 [Example 298, 6-(4-methoxyphenylamino)-4-(pyrimidin-4-ylmethylamino)nicotinamide] | > 1 µM | > 1 µM | 0.1 to 1 µM

Results, then the compound that gave them:

IC50 (JAK1) | IC50 (JAK2) | IC50 (JAK3) | Structure (SMILES)
> 1 µM | > 1 µM | 0.01 to 0.1 µM | COC[C@@H](Nc1cc(Nc2ccc(OC)cc2)ncc1C(N)=O)c1ccccc1 [Example 260, (S)-4-(2-methoxy-1-phenylethylamino)-6-(4-methoxyphenylamino)nicotinamide]
0.1 to 1 µM | 0.1 to 1 µM | 0.01 to 0.1 µM | CN(C)S(=O)(=O)N(C)c1ccc(Nc2cc(NCc3ccccc3)c(C(N)=O)cn2)cc1 [Example 268, 4-(benzylamino)-6-(4-((N,N-dimethylsulfamoyl)(methyl)amino)phenylamino)nicotinamide]
> 1 µM | > 1 µM | 0.01 to 0.1 µM | CN(C)C(=O)c1ccc(Nc2cc(NCc3ccccc3)c(C(N)=O)cn2)cc1C(F)(F)F [Example 272, 4-(benzylamino)-6-(4-(dimethylcarbamoyl)-3-(trifluoromethyl)phenylamino)nicotinamide]
> 1 µM | 0.1 to 1 µM | 0.01 to 0.1 µM | CN(C)C(=O)c1ccc(Nc2cc(NCc3ccccc3)c(C(N)=O)cn2)cc1F [Example 273, 4-(benzylamino)-6-(4-(dimethylcarbamoyl)-3-fluorophenylamino)nicotinamide]
0.1 to 1 µM | 0.1 to 1 µM | 0.01 to 0.1 µM | NC(=O)c1cnc(Nc2ccc(-c3c[nH]cn3)cc2)cc1NCc1ccccc1 [Example 276, 6-(4-(1H-imidazol-4-yl)phenylamino)-4-(benzylamino)nicotinamide]
> 1 µM | > 1 µM | 0.01 to 0.1 µM | NC(=O)c1cnc(Nc2ccc(-n3cccn3)cc2)cc1NCc1ccccc1 [Example 277, 6-(4-(1H-pyrazol-1-yl)phenylamino)-4-(benzylamino)nicotinamide]
> 1 µM | > 1 µM | 0.1 to 1 µM | NC(=O)c1cnc(Nc2ccc(-n3cccn3)nc2)cc1NCc1ccccc1 [Example 278, 6-(6-(1H-pyrazol-1-yl)pyridin-3-ylamino)-4-(benzylamino)nicotinamide]
> 1 µM | > 1 µM | 0.01 to 0.1 µM | COc1ccc(Nc2cc(NCc3ccccc3)c(C(N)=O)cn2)cc1C [Example 279, 4-(benzylamino)-6-(4-methoxy-3-methylphenylamino)nicotinamide]
> 1 µM | 0.1 to 1 µM | 0.01 to 0.1 µM | COc1cc(Nc2cc(NCc3ccccc3)c(C(N)=O)cn2)cc(OC)c1OC [Example 280, 4-(benzylamino)-6-(3,4,5-trimethoxyphenylamino)nicotinamide]
0.1 to 1 µM | 0.1 to 1 µM | 0.01 to 0.1 µM | NC(=O)c1cnc(Nc2ccc(-c3nc[nH]n3)cc2)cc1NCc1ccccc1 [Example 281, 6-(4-(1H-1,2,4-triazol-3-yl)phenylamino)-4-(benzylamino)nicotinamide]
> 1 µM | > 1 µM | 0.01 to 0.1 µM | COc1ccc(Nc2cc(NCc3cccc4cc[nH]c34)c(C(N)=O)cn2)cc1 [Example 282, 4-((1H-indol-7-yl)methylamino)-6-(4-methoxyphenylamino)nicotinamide]
> 1 µM | > 1 µM | 0.1 to 1 µM | COc1ccc(Nc2cc(NCc3cncnc3)c(C(N)=O)cn2)cc1 [Example 286, 6-(4-methoxyphenylamino)-4-(pyrimidin-5-ylmethylamino)nicotinamide]
0.1 to 1 µM | 0.1 to 1 µM | 0.01 to 0.1 µM | COc1ccc(Nc2cc(NCc3ccccc3)c(C(N)=O)cn2)cc1OC [Example 293, 4-(benzylamino)-6-(3,4-dimethoxyphenylamino)nicotinamide]
0.1 to 1 µM | 0.1 to 1 µM | 0.01 to 0.1 µM | COc1ccc(Nc2cc(NCc3cncc(F)c3)c(C(N)=O)cn2)cc1 [Example 296, 4-((5-fluoropyridin-3-yl)methylamino)-6-(4-methoxyphenylamino)nicotinamide]

From US20150353495A1 (PORTOLA PHARMACEUTICALS, INC., priority 2010, published 2015)
